We go through 52 molecules from patent US9675614B2, “PRMT5 inhibitors and uses thereof” (Epizyme, Inc., priority 2012, dated 2017).

The IC50 is the concentration needed to halve the response being measured.

Chain of PRMT5/MEP50 (O14744 other isoform, or with tags, fused parts or gaps): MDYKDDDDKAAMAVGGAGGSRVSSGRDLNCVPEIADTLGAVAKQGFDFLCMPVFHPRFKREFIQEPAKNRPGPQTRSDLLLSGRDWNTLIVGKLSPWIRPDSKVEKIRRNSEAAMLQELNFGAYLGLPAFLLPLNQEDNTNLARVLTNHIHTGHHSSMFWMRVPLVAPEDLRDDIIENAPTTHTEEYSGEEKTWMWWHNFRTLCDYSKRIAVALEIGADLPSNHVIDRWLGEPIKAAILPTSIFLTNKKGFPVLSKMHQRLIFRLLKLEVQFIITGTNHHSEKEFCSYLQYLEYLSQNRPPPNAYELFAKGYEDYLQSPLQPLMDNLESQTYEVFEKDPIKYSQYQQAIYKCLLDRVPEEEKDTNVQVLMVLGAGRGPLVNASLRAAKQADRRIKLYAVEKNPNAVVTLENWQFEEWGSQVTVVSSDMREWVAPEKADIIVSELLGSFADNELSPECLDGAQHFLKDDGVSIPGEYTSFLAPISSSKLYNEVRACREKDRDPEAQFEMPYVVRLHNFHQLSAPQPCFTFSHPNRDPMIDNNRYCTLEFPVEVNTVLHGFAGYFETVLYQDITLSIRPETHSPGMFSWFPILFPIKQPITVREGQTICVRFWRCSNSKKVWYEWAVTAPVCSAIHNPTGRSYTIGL
Chain of PRMT5/MEP50 (Q9BQA1 other isoform, or with tags, fused parts or gaps partner): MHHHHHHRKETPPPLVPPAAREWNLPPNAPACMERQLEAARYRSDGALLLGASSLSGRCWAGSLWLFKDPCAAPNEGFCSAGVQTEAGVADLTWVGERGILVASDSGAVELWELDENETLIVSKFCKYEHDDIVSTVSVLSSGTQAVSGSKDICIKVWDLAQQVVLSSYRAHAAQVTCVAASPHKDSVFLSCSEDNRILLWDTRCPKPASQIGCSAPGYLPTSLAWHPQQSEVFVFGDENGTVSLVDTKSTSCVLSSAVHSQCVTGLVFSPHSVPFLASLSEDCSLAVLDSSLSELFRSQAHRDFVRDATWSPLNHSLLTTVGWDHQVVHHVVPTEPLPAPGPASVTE

The target in the assay is PRMT5/MEP50 (Homo sapiens (Human), UniProt O14744). Put plainly: PRMT5 Biochemical Assay (PRMT5/MEP50 enzyme assay on peptide substrate, 3H-SAM Flashplate). The following applies: PRMT5/MEP50 biochemical assay; read-out: Biochemical IC50. An excerpt:
S-adenosylmethionine (SAM), S-adenosylhomocysteine (SAH), bicine, KCl, Tween20, dimethylsulfoxide (DMSO), bovine skin gelatin (BSG), and Tris(2-carboxyethyl)phosphine hydrochloride solution (TCEP) were purchased from Sigma-Aldrich at the highest level of purity possible. ^3H-SAM was purchase from American Radiolabeled Chemicals with a specific activity of 80 Ci/mmol. 384-well streptavidin Flashplates were purchased from PerkinElmer.
Peptide representative of human histone H4 residues 1-15 was synthesized with a C-terminal linker-affinity tag motif and a C-terminal amide cap by 21st Century Biochemicals. […] The sequence was Ac-[…][K-Biot]amide (SEQ ID NO.:3).
Full-length human MEP50 (NM_024102) clone was amplified from a human testis cDNA library incorporating a 5′ sequence encoding a 6-histidine tag (MHHHHHH) (SEQ ID NO.:5) fused directly to Arg 2 of MEP50. The amplified genes were subcloned into pENTR/D/TEV (Life Technologies) and subsequently transferred by Gateway™ attL×attR recombination to pDEST8 baculvirus expression vector (Life Technologies).
Recombinant baculovirus and Baculovirus-Infected Insect Cells (BIIC) were generated according to Bac-to-Bac kit instructions (Life Technologies) and Wasilko, 2006, respectively. Protein over-expression was accomplished by infecting exponentially growing Spodoptera frugiperda (SF9) cell culture at 1.2×10^6 cell/ml with a 5000 fold dilution of BIIC stock. Infections were carried out at 27° C. for 72 hours, harvested by centrifugation, and stored at −80° C. for purification.
Flag-PRMT5/6His-MeP50 was eluted with 300 mM Imidazole in the same buffer. […] Reference: Wasilko, D. J. and S. E. Lee: “TIPS: titerless infected-cells preservation and scale-up” Bioprocess J., 5 (2006), pp. 29-32.
General Procedure for PRMT5/MEP50 Enzyme Assays on Peptide Substrates.
The assays were all performed in a buffer consisting of 20 mM Bicine (pH=7.6), 1 mM TCEP, 0.005% BSG, and 0.002% Tween20, prepared on the day of use. Compounds in 100% DMSO (1 ul) were spotted into a polypropylene 384-well V-bottom plates (Greiner) using a Platemate Plus outfitted with a 384-channel head (Thermo Scientific). DMSO (1 ul) was added to Columns 11, 12, 23, 24, rows A-H for the maximum signal control and 1 ul of SAH, a known product and inhibitor of PRMT5/MEP50, was added to columns 11, 12, 23, 24, rows I-P for the minimum signal control. A cocktail (40 ul) containing the PRMT5/MEP50 enzyme and the peptide was added by Multidrop Combi (Thermo-Fisher). The compounds were allowed to incubate with PRMT5/MEP50 for 30 min at 25 degrees Celsius, then a cocktail (10 ul) containing ^3H-SAM was added to initiate the reaction (final volume=51 ul). The final concentrations of the components were as follows: PRMT5/MEP50 was 4 nM, ^3H-SAM was 75 nM, peptide was 40 nM, SAH in the minimum signal control wells was 100 uM, and the DMSO concentration was 1%. The assays were stopped by the addition of non-radioactive SAM (10 ul) to a final concentration of 600 uM, which dilutes the ^3H-SAM to a level where its incorporation into the peptide substrate is no longer detectable. 50 ul of the reaction in the 384-well polypropylene plate was then transferred to a 384-well Flashplate and the biotinylated peptides were allowed to bind to the streptavidin surface for at least 1 hour before being washed three times with 0.1% Tween20 in a Biotek ELx405 plate washer. The plates were then read in a PerkinElmer TopCount plate reader to measure the quantity of ^3H-labeled peptide bound to the Flashplate surface, measured as disintegrations per minute (dpm) or alternatively, referred to as counts per minute (cpm).
[formula] Where dpm=disintegrations per minute, cmpd=signal in assay well, and min and max are the respective minimum and maximum signal controls.
[formula] Where top and bottom are the normally allowed to float, but may be fixed at 100 or 0 respectively in a 3-parameter fit.
As for `O=C(NCC(O)CN1CCc2ccccc2C1)c1ccc(OC2CCN(CC(F)(F)F)C2)cc1` (stereo not shown) [Compound 199], the IC50 was under 100 nM.
For `O=C(NCC(O)CN1CCc2ccccc2C1)c1cc(NC2CCOCC2)ncn1` (stereo not shown) [Compound 63] the value was under 100 nM; for `CC(C)(C)c1cc(Nc2cc(C(=O)NC[C@H](O)CN3CCc4ccccc4C3)ccn2)n[nH]1` [Compound 326], under 100 nM; for `CNC(=O)CCCN1CCN(Cc2cccc(C(=O)NCC(O)CN3CCc4ccccc4C3)c2)CC1` (stereo not shown) [Compound 175], under 100 nM.
Regarding `O=C(NC[C@H](O)CN1CCc2ccccc2C1)c1ccnc(NC2CCOCC2)c1` [Compound 192], the IC50 is under 100 nM.
Regarding `COCCN1CCC(Oc2ccc(C(=O)NC[C@H](O)CN3CCc4ccccc4C3)cc2)CC1` [Compound 329], the IC50 is under 100 nM.
For `C[C@@H]1COCCC1Nc1cccc(C(=O)NC[C@H](O)CN2CCc3ccccc3C2)c1` (stereo partly shown) [Compound 212] the value was under 100 nM; for `O=C(NC[C@H](O)CN1CCc2ccccc2C1)c1ccnc(NCC2CNCCO2)c1` (stereo partly shown) [Compound 238], under 100 nM; for `CS(=O)(=O)N1CCC(Nc2cccc(C(=O)NCC(O)CN3CCc4ccccc4C3)c2)C1` (stereo not shown) [Compound 122], under 100 nM.
Take `O=C(O)CCCN1CCN(Cc2cccc(C(=O)NCC(O)CN3CCc4ccccc4C3)c2)CC1` (stereo not shown) [Compound 158]: the IC50 was under 100 nM.
`O=C(NCC(O)CN1CCc2ccccc2C1)c1cccc(CN2CCN(CC(F)(F)F)CC2)c1` (stereo not shown) [Compound 92]: the half-maximal inhibitory concentration (IC50) was under 100 nM.
For `O=C(NC[C@H](O)CN1CCc2ccccc2C1)c1n[nH]c2ccccc12` [Compound 242] the value was under 100 nM.
In the case of `CC(=O)N1CCC(Nc2cc(C(=O)NC[C@H](O)CN3CCc4ccccc4C3)ccn2)C1` (stereo partly shown) [Compound 228], the IC50 is under 100 nM.
As for `O=C1COc2cc(C(=O)NCC(O)CN3CCc4ccccc4C3)ccc2N1` (stereo not shown) [Compound 89], the IC50 was 101 to 1000 nM.
Under `O=C(NCC(O)CN1CCc2ccccc2C1)c1cc(F)cc(NC2CCOCC2)c1` (stereo not shown) [Compound 78] stands under 100 nM; under `O=C(NC[C@H](O)CN1CCc2ccccc2C1)c1cc2c(F)cccc2[nH]1` [Compound 296], under 100 nM.
Under `COc1ccc2oc(C(=O)NC[C@H](O)CN3CCc4ccccc4C3)cc2c1` [Compound 250] stands under 100 nM; under `O=C(NCC(O)CN1CCc2ccccc2C1)c1ccc(CN2CCOCC2)cc1` (stereo not shown) [Compound 145], under 100 nM; under `O=C(NC[C@H](O)CN1CCc2ccccc2C1)c1cc(OC2CCN(CC(F)(F)F)CC2)ncn1` [Compound 285], 101 to 1000 nM.
Regarding `COc1cc(C(=O)NC[C@H](O)CN2CCc3ccccc3C2)cc(NC2CCC2)n1` [Compound 332], the IC50 was under 100 nM.
Under `O=C(NC[C@H](O)CN1CCc2ccccc2C1)c1cccc(NC2CCOC2)c1` (stereo partly shown) [Compound 80] stands under 100 nM; under `Cc1ccc2cc(C(=O)NC[C@@H](O)CN3CCc4ccccc4C3)ccc2n1` [Compound 219, (R)—N-(3-(3,4-dihydroisoquinolin-2(1H)-yl)-2-hydroxypropyl)-2-methylquinoline-6-carboxamide], under 100 nM; under `O=C(NC[C@H](O)CN1CCc2ccccc2C1)c1cccc2ccccc12` [Compound 295], 101 to 1000 nM.
Under `O=C(NC[C@H](O)CN1CCc2ccccc2C1)c1cccc(-c2ccccn2)c1` [Compound 20] stands under 100 nM.
With `O=C(NC[C@@H](O)CN1CCc2ccccc2C1)c1cccc(-c2ccccn2)c1` [Compound 19], the IC50 was under 100 nM.
For the molecule `O=C(NC[C@@H](O)CN1CCc2ccccc2C1)c1cccc(NC2CCOC2)c1` (stereo partly shown) [Compound 81], the IC50 is under 100 nM.
For `O=C(NCC(O)CN1CCc2ccccc2C1)c1cccc(CN2CCN(CCO)CC2)c1` (stereo not shown) [Compound 113] the value was under 100 nM.
For `CS(=O)(=O)N1CCC(Nc2cc(C(=O)NC[C@H](O)CN3CCc4ccccc4C3)ncn2)CC1` [Compound 297], the IC50 was under 100 nM.
With `C[C@H]1CC(Nc2cccc(C(=O)NC[C@H](O)CN3CCc4ccccc4C3)c2)CCO1` (stereo partly shown) [Compound 167], the IC50 is under 100 nM.
Regarding `CC1=NN(c2ccc(C(=O)NCC(O)CN3CCc4ccccc4C3)cc2)C(=O)C1` (stereo not shown) [Compound 86], the IC50 lay within 101 to 1000 nM.
With `O=C(NC[C@H](O)CN1CCc2ccccc2C1)c1ccnc(NC2CCCC2)c1` [Compound 334], the IC50 was under 100 nM.
In the case of `O=C(NCC(O)CN1CCc2ccccc2C1)c1ccc(NC2CCN(CC(F)(F)F)CC2)cc1` (stereo not shown) [Compound 128], the IC50 is under 100 nM.
Regarding `NCCNc1cc(C(=O)NC[C@H](O)CN2CCc3ccccc3C2)ccn1` [Compound 320], the IC50 is under 100 nM.
For `O=C(NCC(O)CN1CCc2ccccc2C1)c1ccc(OC2CCN(CC(F)(F)F)CC2)cc1` (stereo not shown) [Compound 109] the value was under 100 nM; for `O=C(NC[C@H](O)CN1CCc2ccccc2C1)c1ccnc(NC2CCNCC2)c1` [Compound 200], under 100 nM; for `CNCCN(C)c1cc(C(=O)NC[C@H](O)CN2CCc3ccccc3C2)ccn1` [Compound 233], under 100 nM.
Under `CN1CCN(Cc2cccc(C(=O)NCC(O)CN3CCc4ccccc4C3)c2)CC1` (stereo not shown) [Compound 30, N-(3-(3,4-dihydroisoquinolin-2(1H)-yl)-2-hydroxypropyl)-3-((4-methylpiperazin-1-yl)methyl)benzamide] stands under 100 nM; under `O=C(NC[C@H](O)CN1CCc2ccccc2C1)c1ccnc(NC2CCOC2)c1` (stereo partly shown) [Compound 306], under 100 nM; under `O=C(NCC(O)CN1CCc2ccccc2C1)c1ccc2nccnc2c1` (stereo not shown) [Compound 85], 101 to 1000 nM.
Under `O=C(NC[C@@H](O)CN1CCc2ccccc2C1)c1cccc(NC2CCOCC2)c1` [Compound 43] stands 101 to 1000 nM; under `O=C(NCC(O)CN1CCc2ccccc2C1)c1cccc(CO)c1` (stereo not shown) [Compound 151], 101 to 1000 nM.
As to `O=C(NC[C@H](O)CN1CCc2ccccc2C1)c1ccnc(NCc2ccncc2)c1` [Compound 189], the IC50 was under 100 nM.
For `CN(c1cc(C(=O)NC[C@H](O)CN2CCc3ccccc3C2)ncn1)C1CCOCC1` [Compound 261] the value was under 100 nM; for `CN(CCNc1cc(C(=O)NC[C@H](O)CN2CCc3ccccc3C2)ccn1)S(C)(=O)=O` [Compound 262], under 100 nM.
As to `CC(=O)N1CCC(Oc2cc(C(=O)NC[C@H](O)CN3CCc4ccccc4C3)ncn2)CC1` [Compound 287], the IC50 was under 100 nM.
In the case of `CC(=O)N1CCC(Oc2ccc(C(=O)NCC(O)CN3CCc4ccccc4C3)cc2)CC1` (stereo not shown) [Compound 107], the IC50 is under 100 nM.
For `CC(=O)N1CCC(Nc2cc(C(=O)NC[C@H](O)CN3CCc4ccccc4C3)ncn2)C1` (stereo partly shown) [Compound 210], the IC50 was under 100 nM.
Under `CCOC(=O)CN1CCN(Cc2cccc(C(=O)NCC(O)CN3CCc4ccccc4C3)c2)CC1` (stereo not shown) [Compound 165] stands under 100 nM.
Under `CN(C[C@H](O)CN1CCc2ccccc2C1)C(=O)c1cc(NC2CCOCC2)ncn1` [Compound 232] stands 101 to 1000 nM.
With `CC(=O)N(C)CCNc1cc(C(=O)NC[C@H](O)CN2CCc3ccccc3C2)ccn1` [Compound 315], the IC50 was under 100 nM.
For `CN(c1cc(C(=O)NC[C@H](O)CN2CCc3ccccc3C2)ccn1)C1CCOCC1` [Compound 324] the value was under 100 nM; for `Cc1ccc(NC2CCOC2)cc1C(=O)NCC(O)CN1CCc2ccccc2C1` (stereo not shown) [Compound 96], under 100 nM.
